Experimental data taken from patent US10919949B2, “Acylated insulin analogues and uses thereof” (Novo Nordisk A/S, priority 2017, dated 2021).

Legend:
isolated rat adipocytes = experiment: Lipogenesis in rat free fat cell assay; type: cell-based
Description: The metabolic potency of the insulin derivatives of the invention was determined by lipogenesis using isolated rat adipocytes.
In brief, epididymal fat pads were removed from killed Sprague-Dawley rats and placed in degradation buffer with collagenase (Worthington) in order to degrade the fat pads into a single-cell suspension. […] The incubation was stopped by addition of MicroScint-E (PerkinElmer), and the plates counted in a TopCount NXT (PerkinElmer).

AKT and ERK = experiment: Insulin receptor signalling via AKT and ERK phosphorylation in CHO-hIR cells (Western blot / Surefire); type: cell-based, Chinese hamster; conditions: 10 min stimulation, Table 1A
Description: Insulin receptor (IR) signalling of the analogues of this invention via AKT and ERK pathways was assessed either by traditional Western blotting technique or by the use of Surefire, alphascreen technique.
In brief, CHO-hIR cells were stimulated for 10 min with increasing concentrations of the insulin analogue, washed in ice-cold PBS, snap-frozen and lysed in lysis buffer (Biosource). Equal amounts of proteins were loaded on gels and blotted to nitrocellulose membranes. Phosphorylated AKT and ERK were visualised with Phospho-AKT (Ser473) (Cell signalling #9271) and pMAPK 44/42 ERK1/2 rabbit (Cell Signalling #4376) antibodies, respectively. Band intensities were evaluated using a LAS3000 (Fuji).
The responsiveness value (Span) for each analogue was calculated using non-linear regression in GraphPad Prism 7 from GraphPad Software Inc and expresses as percent of the responsiveness of insulin (% max AKT or % max ERK)

[1] = 0.1% HSA as printed, Table 1A second lipogenesis column
[2] = 0.1% HSA, Table 1A first lipogenesis column

Substance | Lipogenesis 0.1% HSA EC50 (% of human insulin) (isolated rat adipocytes; [1]) | Lipogenesis 0.1% HSA EC50 (% of human insulin) (isolated rat adipocytes; [2]) | % maxERK/% maxAKT (AKT and ERK)
N{Epsilon-B28}-[(4R)-4-[(3R,10S,13R,17R)-3-hydroxy-10,13-dimethyl-2,3,4,5,6,7,8,9,11,12,14,15,16,17-tetradecahydro-1H-cyclopenta[a]phenanthren-17-yl]pentanoyl]-[TyrB5,LysB28],des-(B29-B30)-Insulin [Example 9] | 0.49 % of human insulin | 0.40 % of human insulin | 0.29
N{Epsilon-B28}-[(4S)-4-carboxy-4-[[(4R)-4-[(3R,10S,13R,17R)-3-hydroxy-10,13-dimethyl-2,3,4,5,6,7,8,9,11,12,14,15,16,17-tetradecahydro-1H-cyclopenta[a]phenanthren-17-yl]pentanoyl]amino]butanoyl]-[TyrB5,LysB28],des-(B29-B30)-Insulin [Example 8] | 0.72 % of human insulin | 1.76 % of human insulin | 0.32
